Test results from patent US20060147388A1, “Pharmaceutical compositions for nasal delivery” (priority 2003, published 2006).
Values joined by “and” are separate entries in the source; they are usually repeats but may differ in a detail not shown here. Equal entries are not always repeated.

Tested on: ‘off’ period in subjects with PD
Experiment: Single-dose reversal of 'off' period in subjects with PD, subcutaneous vs intra-nasal apomorphine
Type: in vivo, human
Settings: for Duration of ‘on’ response / Latency for ‘on’ response: s/c (subcutaneous), normal dose 2-5 mg, individual PD subjects 1-6
Excerpt: The nasal powder formulation used in this study was in accordance with this invention prepared using the method of Method example 1 and comprised the following components:
Six subjects with PD complicated by motor fluctuations were studied, 5 male (mean age 64 years, range 57-70 years), […]. The mean duration of disease was 13 years (range 7-24 years). […] On each dosing day the subjects attended the clinic and their normal oral medication was withheld until an ‘off’ episode developed. Each subject then received the designated apomorphine dose (subcutaneous or nasal). The abbreviated Unified PD Rating Scale (UPDRS) was used to assess motor performance at regular intervals following each apomorphine dosing. The time for the ‘off’ period to be fully alleviated and the duration of this response were determined primarily by patient feedback and supported by clinical judgement and the UPDRS scores.

[1] = subcutaneous dosing 2-5 mg, mean of 6 subjects

CN1CCc2cccc3c2[C@H]1Cc1ccc(O)c(O)c1-3 [subcutaneous apomorphine, Apomorphine]
Duration of ‘on’ response (subcutaneous dose 2 mg): 75 min and 96 min
Latency for ‘on’ response (subcutaneous dose 2 mg): 20 min
Duration of ‘on’ response (subcutaneous dose 4 mg): 65 min and 48 min and 43 min
Latency for ‘on’ response (subcutaneous dose 4 mg): 14 min (2×) and 30 min
Duration of ‘on’ response (subcutaneous dose 5 mg): 46 min
Latency for ‘on’ response (subcutaneous dose 5 mg): 61 min
Mean duration of ‘on’ response [1]: 62 min
Mean latency of ‘on’ response [1]: 27 min
Range of latency of response (subcutaneous dosing 2-5 mg, range over 6 subjects): 14 to 61 min
Range of duration of response (subcutaneous dosing, range over 6 subjects): 43 to 96 min
